Assay results reported in patent publication US5013554A, “Oral pharmaceutical compositions containing dextrophan salts” (Prodotti Formenti s.r.l., priority 1988, dated 1991).
Counter-ions that a name gives are not always drawn.

Tests used:
[1] = pharmacokinetic study on guinea pigs under urethane anaesthesia, oral administration of dextrorphan citrate and tartrate; plasma dextrorphan by HPLC after β-glucuronidase hydrolysis; format: in vivo
Protocol: The results from a pharmacokinetic study effected on guinea pigs under urethane anesthaesia, to which dextrorphan citrate and tartrate had been administered by the oral route, are reported hereinbelow in order to show the good bioavailability of dextrorphan salts.
Dextrorphan dosages were measured by a high pressure liquid chromatography method.
The plasma samples were subjected, before the extraction, to enzymatic hydrolysis with β-glucuronidase, according to the method reported by T.EAST and D.DYE (Journal of Chromatography Biomedical Applications 388, 99-112, 1985).
After hydrolysis, plasma samples were alkalinized with sodium carbonate and extracted with benzene; benzene was re-extracted with 0.5 ml of 0.1 NHCl and 100 mcl were chromatographed under the following conditions:
COLUMN: Lichrosorb RP Select B Merck 5 λ, 25 cm ×4 mm inn. d.
MOBILE PHASE: Octanesulphonic acid sodium salt 0.01M solution in water. Acetonitrile mixture (68-32% ). The solution was then buffered to pH 3 with phosphoric acid.
DETECTOR: F 1000 MERCK HITACHI Fluorimeter exc.=280 nm; em.=310 nm

[2] = background; cited from earlier work
[3] = background; compared with dextromethorphan; cited from earlier work
[4] = previously reported; cited from earlier work
[5] = background; cited from earlier work; remark: listed apart in the source
opiaceous receptors = conditions: background; cited from earlier work

For `CN1CC[C@@]23CCCC[C@@H]2[C@@H]1Cc1ccc(O)cc13` [Dextrorphan citrate], the oral absorption ([1]; in words) was “effectively absorbed”.

For `CN1CC[C@@]23CCCC[C@@H]2[C@@H]1Cc1ccc(O)cc13` [Dextrorphan], the analgesic activity [2] is given as “lack of analgesic activity”, the toxicity [3] is given as “very low toxicity, even lower than that of dextromethorphan” and the “use by the oral route” value [4] is given as “not to be conveniently used by the oral route”. For the same compound, the concentration at 0.25 h ([1]; guinea pig, plasma, po, Table 2 (dextrorphan tartrate by order of b16), 15 minutes, read-out: Dextrorphan hematic levels) was 10 ng/mL, the concentration at 0.5 h ([1]; guinea pig, plasma, po, Table 2 (dextrorphan tartrate by order of b16), 30 minutes, read-out: Dextrorphan hematic levels) was 470 ng/mL and the concentration at 1 h ([1]; guinea pig, plasma, po, Table 2 (dextrorphan tartrate by order of b16), 60 minutes, read-out: Dextrorphan hematic levels) was 2500 ng/mL. The concentration at 2 h ([1]; guinea pig, plasma, po, Table 2 (dextrorphan tartrate by order of b16), 120 minutes, read-out: Dextrorphan hematic levels) was 3800 ng/mL, the concentration at 3 h ([1]; guinea pig, plasma, po, Table 2 (dextrorphan tartrate by order of b16), 180 minutes, read-out: Dextrorphan hematic levels) was 3000 ng/mL and the concentration at 5 h ([1]; guinea pig, plasma, po, Table 2 (dextrorphan tartrate by order of b16), 300 minutes, read-out: Dextrorphan hematic levels) was 3800 ng/mL. The antitussive action [5] was “remarkable antitussive action” and the “affinity to the opiaceous receptors” value (opiaceous receptors) was “lack of analgesic activity and of affinity to the opiaceous receptors”.
